Data reported in EP0008186A1, “Cyclic diamides, a process for their preparation and their pharmaceutical compositions” (BEECHAM GROUP PLC, priority 1978, dated 1980).

Key:
Assay type in all cases: in vivo
conscious guinea pigs = experiment: Herxheimer test: protection against histamine aerosol induced bronchoconstriction; details: administered by aerosol or by oral administration, mean of several experiments
Description: • 1. The compounds were examined for their ability to inhibit 5-hydroxytryptamine or histamine induced bronchoconstriction in the anaesthetised, artifically respired guinea pig (Konzett-Rossler preparation). The compounds were administered intravenously. The results are shown in Table A. [formula] • 2. Compound 3 was also examined for its ability to protect conscious guinea pigs against bronchoconstriction induced by an histamine aerosol (Herxheimer test). In these experiments the compound was administered by aerosol or by oral administration. The results are the mean of several experiments. Compound 3 was active at 10 mg/kg.

[1] = test system: anaesthetised, perfused rat stomach preparation; experiment: Inhibition of pentagastrin-stimulated gastric acid secretion (Ghosh and Schild preparation); details: i.v.
Description: The compounds were examined for their ability to inhibit pentagastrin-stimulated gastric acid secretion in the anaesthetised, perfused rat stomach preparation (Ghosh and Schild preparation). The compounds were administered intravenously.

rat = experiment: Anti-ulcer activity: inhibition of indomethacin induced gastric damage; details: gastric damage score 1-9; 50mg/kg orally 30 minutes prior to 15mg/kg indomethacin subcutaneously; sacrificed 4 hours later; vehicle 4.57 ± 0.69; p <0.01 (Mann Witney)
Description: Anti-ulcer activity was assessed by the inhibition of indomethacin induced gastric damage in the rat according to the method of Eleghe (1974) Israeli J. Med. Sci. 10 1451. Rats were starvedovernight given 15mg/kg indomethacin subcutaneously and sacrificed 4 hours later. Stomachs were reflated with n. saline, cut along the greater curvature pinned out and scored for gastric damage by the following system: • Score 1 - 3 - according to degree of erythema and slight haemorrhage. • Score 4 - 6 - according to degree of mucosal erosion. • Score 7 - 9 - according to depth of gastric damage.
Groups of 7 rats were used for each treatment and the test compound or vehicle were administered 30 minutes prior to giving the indomethacin. Dose of test compound was 50mg/kg orally and control groups receiving vehicle only were set up simultaneously. Mean values for each treatment were obtained using the above scoring system and the Mann Witney test applied for significance of difference between the values obtained with the treatments.

Compound | active at (protection against bronchoconstriction induced by an histamine aerosol) (conscious guinea pigs) | inhibited gastric acid secretion at [1] | Test Mean Score ± S.E. of Mean (rat)
CCCCC(C)C(C)(O)CCN1C(=O)CN(C)C(=O)C1CCCCCCC(=O)OC (stereo not shown) [Compound 3] | 10 mg/kg | 0.2 mg/kg | 0.71 ± 0.42 (p <0.01)
COC(=O)CCCCCCC1C(=O)N[C@@H](C)C(=O)N1CCC(C)(O)C1CCCCC1 (stereo partly shown) [Compound 9] |  | 0.25 mg/kg | 
